According to ChEMBL document CHEMBL5357060, “Cytotoxic Polyhydroxy-Isoprenoids from Neodidymelliopsis negundinis” (J Nat Prod, 2024):
Converted amounts (≈) assume the structure as drawn.

Assays:
Candida albicans [1] = assay: Antibiofilm activity against Candida albicans DSM 11225 assessed as increase in biofilm inhibition at 250 ug/ml incubated for 24 hrs by crystal violet staining based plate reader analysis relative to control; format: functional; parameters: scale not given: the % may be the effect or the level left; conditions: dose 250 µg/ml
Staphylococcus aureus [2] = assay: Antibiofilm activity against Staphylococcus aureus DSM 1104 assessed as increase in biofilm inhibition at 250 ug/ml incubated for 24 hrs by crystal violet staining based plate reader analysis relative to control; format: functional; parameters: scale not given: the % may be the effect or the level left; conditions: dose 250 µg/ml
KB 3-1 = assay: Antiproliferative activity against human KB-3-1 cells assessed as reduction in cell growth incubated for 5 days by MTT assay; format: functional, cell-based; conditions: KB 3-1, 120 h
Staphylococcus aureus [3] = assay: Antibacterial activity against Staphylococcus aureus DSM 346 incubated overnight by serial dilution assay; format: functional
Candida albicans [4] = assay: Antibiofilm activity against Candida albicans DSM 11225 assessed as increase in biofilm inhibition at 125 microg/ml incubated for 24 hrs by crystal violet staining based plate reader analysis relative to control; format: functional; parameters: scale not given: the % may be the effect or the level left; conditions: dose 125 µg/ml
A-431 = assay: Antiproliferative activity against human A-431 cells assessed as reduction in cell growth incubated for 5 days by MTT assay; format: functional, cell-based; conditions: A-431, 120 h
Bacillus subtilis = assay: Antibacterial activity against Bacillus subtilis DSM 10 incubated overnight by serial dilution assay; format: functional
PC-3 = assay: Antiproliferative activity against human PC-3 cells assessed as reduction in cell growth incubated for 5 days by MTT assay; format: functional, cell-based; conditions: PC-3, 120 h
A549 = assay: Antiproliferative activity against human A549 cells assessed as reduction in cell growth incubated for 5 days by MTT assay; format: functional, cell-based; conditions: A549, 120 h
[5] = Cytotoxicity against mouse L929 cells assessed as reduction in cell viability incubated for 5 days by MTT assay; format: toxicity, cell-based
SK-OV-3 = assay: Antiproliferative activity against human SK-OV-3 cells assessed as reduction in cell growth incubated for 5 days by MTT assay; format: functional, cell-based; conditions: SK-OV-3, 120 h
MCF7 = assay: Antiproliferative activity against human MCF7 cells assessed as reduction in cell growth incubated for 5 days by MTT assay; format: functional, cell-based; conditions: MCF7, 120 h

IC50 (KB 3-1): 8.3 µM
MIC (Staphylococcus aureus [3]): 33.3 µg/mL (≈ 36.3 µM)
IC50 (A-431): 4.8 µM
MIC (Bacillus subtilis): 16.6 µg/mL (≈ 18.1 µM)
IC50 (PC-3): 4.8 µM
IC50 (A549): 4.8 µM
IC50 (SK-OV-3): 4.8 µM
IC50 (MCF7): 4.8 µM
SMILES: C/C(=C\CC/C(C)=C/CO[C@@H]1O[C@H](CO)[C@@H](O)[C@H](O)[C@@H]1O)CC/C=C(\C)CCCC(C)(O)CCCC(C)(O)CCCC(C)(O)CCCC(C)(O)CCCC(C)(O)CCC(O)C(C)(C)O (some centres not stated)
Activity (Candida albicans [1]): 71%
Activity (Staphylococcus aureus [2]): 85%
Activity (Candida albicans [4]): 66%
IC50 at 5 days [5]: 8.1 µM
